≈ marks a conversion by molar mass, not a printed value. Where two headings read alike, the source gives them in different places.
Key:
S. epidermidis IFO 12293 = assay: Antibacterial action, MIC against standard strain S. epidermidis IFO 12293; type: cell-based; details: Staphylococcus epidermidis
Experimental: (§1) The minimum inhibitory concentrations (MIC; μg/ml) of specimen compounds against standard strains [S. aureus 209P (S.a.), S. epidermidis IFO 12293 (S.e.) and P. aeruginosa IFO 3445 (P.a.)] were determined in accordance with the standard method (CHEMOTHERAPY, 29(1), 76, 1981) prescribed by The Japan Chemotherapeutic Association.

S. aureus 209P = assay: Antibacterial action, MIC against standard strain S. aureus 209P (standard method of the Japan Chemotherapeutic Association); type: cell-based; details: Staphylococcus aureus, read-out: MIC S.a.
Experimental: as §1

P. aeruginosa IFO 3445 = assay: Antibacterial action, MIC against standard strain P. aeruginosa IFO 3445; type: cell-based; details: Pseudomonas aeruginosa
Experimental: as §1

[1] = Biliary recovery rate upon oral administration to rats; type: in vivo, male SD rats; details: bile, rat, 20 mg/kg or 10 mg/kg, 0-24 hours, after hydrolysis with the alkali
Experimental: (§2) The recovery rates in both urine and bile of compounds according to the present invention upon oral administration to rats were determined to evaluate their absorbability and excretory behavior.
(2) Biliary Recovery Rate
(§3) A polyethylene tube was inserted into the common bile ducts of male SD rats aged 6 weeks fasted overnight under etherization. After the anesthetic wore away, the rats were forced to orally administer each of the specimen compounds in the same manner as in the item (a) to collect bile till 24 hours after the administration. The concentration of the specimen compound in the bile was determined in the same manner as in the item (a) after hydrolysis with an alkali (0.1N, NaOH, 37° C., 1 hour) or without being subjected to any treatment, thereby finding its recovery rate in bile.

[2] = Urinary recovery rate upon oral administration to rats; type: in vivo, male SD rats; details: urine, rat, 20 mg/kg or 10 mg/kg, paper disk method; for dose excreted at 6 h: 0-6 hours; for dose excreted at 24 h: 6-24 hours
Experimental: The recovery rates in both urine and bile of compounds according to the present invention upon oral administration to rats were determined to evaluate their absorbability and excretory behavior. (a) Urinary Recovery Rate Male SD rats aged 6 weeks fasted overnight were forced to orally administer a 0.5% methyl cellulose suspension (20 mg/10 ml/kg or 10 mg/10 ml/kg) of each of specimen compounds using a peroral sound. Urine was collected twice in the course of from 0 up to 6 hours and from 6 up to 24 hours after the administration. The concentration of the specimen compound in the urine was determined by a paper disk method using Bacillus subtilis ATCC 6633 as a tester strain to find its recovery rate in urine.

[3] = Total recovery rate in urine and bile upon oral administration to rats; type: in vivo, male SD rats; details: rat, 20 mg/kg or 10 mg/kg, urine plus bile, 0-24 hours
Experimental: as §2
Male SD rats aged 6 weeks fasted overnight were forced to orally administer a 0.5% methyl cellulose suspension (20 mg/10 ml/kg or 10 mg/10 ml/kg) of each of specimen compounds using a peroral sound. Urine was collected twice in the course of from 0 up to 6 hours and from 6 up to 24 hours after the administration. The concentration of the specimen compound in the urine was determined by a paper disk method using Bacillus subtilis ATCC 6633 as a tester strain to find its recovery rate in urine.
as §3

[4] = IFO12293, S. epidermidis IFO 12293, read-out: MIC S.e.
[5] = IFO3445, P. aeruginosa IFO 3445, read-out: MIC P.a.

SMILES	MIC (S. epidermidis IFO 12293; [4]) [µg/mL]	MIC (S. aureus 209P; S. aureus 209P) [µg/mL]	MIC (P. aeruginosa IFO 3445; [5]) [µg/mL]	dose excreted at 24 h [1] [%]	dose excreted at 6 h [2] [%]	dose excreted at 24 h [2] [%]	dose excreted at 24 h [3] [%]	MIC (S. epidermidis IFO 12293; IFO12293, read-out: MIC S.e.) [µg/mL]	MIC (S. aureus 209P; 209P) [µg/mL]	MIC (P. aeruginosa IFO 3445; IFO3445, read-out: MIC P.a.) [µg/mL]
CNc1c(F)cc2c(=O)c(C(=O)O)cn(-c3cc(N)c(F)cc3Cl)c2c1Cl [Example 19, 1-(5-Amino-2-chloro-4-fluorophenyl)-8-chloro-6-fluoro-7-methylamino-4-oxo-1,4-dihydroquinoline-3-carboxylic Acid]	0.05 (≈ 0.121 µM)	0.013 (≈ 0.0314 µM)	0.39 (≈ 0.942 µM)	–	–	–	–	–	–	–
CNc1c(F)cc2c(=O)c(C(=O)O)cn(-c3nc(N)c(F)cc3F)c2c1Cl [Example 28, 1-(6-Amino-3,5-difluoropyridin-2-yl)-8-chloro-6-fluoro-7-methylamino-4-oxo-1,4-dihydroquinoline-3-carboxylic Acid]	0.025 (≈ 0.0627 µM)	0.006 (≈ 0.015 µM)	0.39 (≈ 0.978 µM)	–	–	–	–	–	–	–
Cc1c(N)c(F)cc2c(=O)c(C(=O)O)cn(-c3cc(N)c(F)cc3F)c12 [Example 12, 7-Amino-1-(5-amino-2,4-difluorophenyl)-6-fluoro-8-methyl-4-oxo-1,4-dihydroquinoline-3-carboxylic Acid]	0.05 (≈ 0.138 µM)	0.013 (≈ 0.0358 µM)	0.1 (≈ 0.275 µM)	81.7	4.8	10.8	97.3	–	–	–
Cc1c(NCCCO)c(F)cc2c(=O)c(C(=O)O)cn(-c3cc(N)c(F)cc3F)c12 [Example 88, 1-(5-Amino-2,4-difluorophenyl)-8-methyl-6-fluoro-7-(3-hydroxy-n-propylamino)-4-oxo-1,4-dihydroquinoline-3-carboxylic Acid]	0.025 (≈ 0.0593 µM)	0.013 (≈ 0.0309 µM)	0.78 (≈ 1.85 µM)	–	–	–	–	–	–	–
Nc1cc(-n2cc(C(=O)O)c(=O)c3cc(F)c(N4CC(N)C4)c(Cl)c32)c(F)cc1F [Referential compound, 7(3-Aminoazetidin-1-yl)-1-(5-amino-2,4-difluoro-phenyl)-8-chloro-6-fluoo-4-oxo-1,4-dihydroquinoline-3-carboxylic acid, reference compound]	–	–	–	11.1	7.6	2.7	21.5	–	–	–
C=CCNc1c(F)cc2c(=O)c(C(=O)O)cn(-c3nc(N)c(F)cc3F)c2c1Cl [Example 77, 7-Allylamino-1-(6-amino-3,5-difluoropyridin-2-yl)-8-chloro-6-fluoro-4-oxo-1,4-dihydroquinoline-3-carboxylic Acid]	0.013 (≈ 0.0306 µM)	0.013 (≈ 0.0306 µM)	0.39 (≈ 0.918 µM)	–	–	–	–	–	–	–
CNc1c(F)c(N)c2c(=O)c(C(=O)O)cn(-c3cc(N)c(F)cc3F)c2c1Cl [Example 70, 5-Amino-1-(5-amino-2,4-difluorophenyl)-8-chloro-6-fluoro-7-methylamino-4-oxo-1,4-dihydroquinoline-3-carboxylic Acid]	0.025 (≈ 0.0606 µM)	0.013 (≈ 0.0315 µM)	0.2 (≈ 0.485 µM)	–	–	–	–	–	–	–
NC1CCN(c2nc3c(cc2F)c(=O)c(C(=O)O)cn3-c2ccc(F)cc2F)C1 (stereo not drawn) [Tosufloxacin, reference compound]	0.2 (≈ 0.495 µM)	0.05 (≈ 0.124 µM)	0.39 (≈ 0.965 µM)	9.2	19	12.3	40.5	–	–	–
CNc1c(F)cc2c(=O)c(C(=O)O)cn(-c3cc(N)c(F)cc3F)c2c1C [Example 16, 1-(5-Amino-2,4-difluorophenyl)-6-fluoro-8-methyl-7-methylamino-4-oxo-1,4-dihydroquinoline-3-carboxylic Acid]	0.05 (≈ 0.133 µM)	0.013 (≈ 0.0345 µM)	0.39 (≈ 1.03 µM)	–	–	–	–	–	–	–
O=C(O)c1cn(C2CC2)c2cc(N3CCNCC3)c(F)cc2c1=O [Cyprofloxacin, reference compound]	–	–	–	–	–	–	–	0.78 (≈ 2.35 µM)	0.1 (≈ 0.302 µM)	0.39 (≈ 1.18 µM)
C[C@H]1COc2c(N3CCN(C)CC3)c(F)cc3c(=O)c(C(=O)O)cn1c23 [Levofloxacin, reference compound]	0.39 (≈ 1.08 µM)	0.2 (≈ 0.553 µM)	0.78 (≈ 2.16 µM)	48.3	21.2	13.7	83.2	–	–	–
CNc1c(F)cc2c(=O)c(C(=O)O)cn(-c3cc(N)c(F)cc3F)c2c1Cl [Example 14, 1-(5-Amino-2,4-difluorophenyl)-8-chloro-6-fluoro-7-methylamino-4-oxo-1,4-dihydroquinoline-3-carboxylic Acid]	0.025 (≈ 0.0629 µM)	0.013 (≈ 0.0327 µM)	0.2 (≈ 0.503 µM)	103	1.2	2.6	107	–	–	–
CNc1c(F)cc2c(=O)c(C(=O)O)cn(-c3nc(N)c(F)cc3F)c2c1Br [Example 30, 1-(6-Amino-3,5-difluoropyridin-2-yl)-8-bromo-6-fluoro-7-methylamino-4-oxo-1,4-dihydroquinoline-3-carboxylic Acid]	0.025 (≈ 0.0564 µM)	0.006 (≈ 0.0135 µM)	0.78 (≈ 1.76 µM)	–	–	–	–	–	–	–
Nc1cc(-n2cc(C(=O)O)c(=O)c3cc(F)c(N)c(Cl)c32)c(F)cc1F [Example 11, 7-Amino-1-(5-amino-2,4-difluorophenyl)-8-chloro-6-fluoro-4-oxo-1,4-dihydroquinoline-3-carboxylic Acid]	0.05 (≈ 0.13 µM)	0.013 (≈ 0.0339 µM)	0.2 (≈ 0.521 µM)	90	9.7	13.7	113	–	–	–
CNc1c(F)c(O)c2c(=O)c(C(=O)O)cn(-c3cc(N)c(F)cc3F)c2c1C [Example 98, 1-(5-Amino-2,4-difluorophenyl)-6-fluoro-5-hydroxy-8-methyl-7-methylamino-4-oxo-1,4-dihydroquinoline-3-carboxylic Acid]	0.013 (≈ 0.0331 µM)	0.013 (≈ 0.0331 µM)	0.39 (≈ 0.992 µM)	–	–	–	–	–	–	–
C[C@@H]1CN(c2c(F)c(N)c3c(=O)c(C(=O)O)cn(C4CC4)c3c2F)C[C@H](C)N1 [Sparfloxacin, reference compound]	0.2 (≈ 0.51 µM)	0.05 (≈ 0.127 µM)	0.78 (≈ 1.99 µM)	–	–	–	–	–	–	–
CNc1c(F)c(C)c2c(=O)c(C(=O)O)cn(-c3cc(N)c(F)cc3F)c2c1Cl [Example 56, 1-(5-Amino-2,4-difluorophenyl)-8-chloro-6-fluoro-5-methyl-7-methylamino-4-oxo-1,4-dihydroquinoline-3-carboxylic Acid]	0.013 (≈ 0.0316 µM)	0.006 (≈ 0.0146 µM)	0.2 (≈ 0.486 µM)	–	–	–	–	–	–	–
CNc1c(F)c(C)c2c(=O)c(C(=O)O)cn(-c3cc(N)c(F)cc3F)c2c1C [Example 59, 1-(5-Amino-2,4-difluorophenyl)-6-fluoro-5,8-dimethyl-7-methylamino-4-oxo-1,4-dihydroquinoline-3-carboxylic Acid]	0.013 (≈ 0.0332 µM)	0.006 (≈ 0.0153 µM)	0.39 (≈ 0.997 µM)	–	–	–	–	–	–	–
COc1c(F)cc2c(=O)c(C(=O)O)cn(-c3cc(N)c(F)cc3F)c2c1C [Example 99, 1-(5-Amino-2,4-difluorophenyl)-6-fluoro-7-methoxy-8-methyl-4-oxo-1,4-dihydroquinoline-3-carboxylic Acid]	0.05 (≈ 0.132 µM)	0.013 (≈ 0.0344 µM)	0.78 (≈ 2.06 µM)	–	–	–	–	–	–	–

Reference: patent publication US6136823A, “Pyridonecarboxylic acid derivatives or salts thereof and drugs containing the same as the active ingredient” (Wakunaga Pharmaceutical Co., Ltd., priority 1996, dated 2000)
